Measurements: US12145948B2, “Compounds and methods for modulating HER2” (IAMBIC THERAPEUTICS, INC., priority 2022, dated 2024)

Assays:
[1] = target: T1, ERBB2-A775_G776insYVMA (ERBB2YVMA) (Homo sapiens, UniProt P04626, INS775YVMA); assay: HotSpot radiometric kinase activity assay, ERBB2YVMA; conditions: biochemical activity, read-out: HER2-YVMA IC50
T1 construct: purchased SignalChem E27-13BG
Experimental: The purpose of the wtERBB2, ERBB2-A775_G776insYVMA (ERBB2YVMA), wtEGFR biochemical assay was to evaluate the inhibition (% inhibition and IC50 values) of the small molecule inhibitors by using the “HotSpot” radiometric kinase activity assay. HotSpot assays monitor the […] of kinase substrate by the radioactive gamma phosphate of adenosine triphosphate (33P-ATP) during biochemical reactions. HotSpot assays was performed in steps upon completion of the kinase reaction: deposition of a reaction mixture aliquot onto P81 ion exchange paper, extensive washing of the aforementioned P81 paper using phosphoric acid to remove unbound radiolabeled 33P-ATP from the P81 paper, and finally visualization and quantification of the dried P81 paper utilizing a phosphoimager. […] Typical reaction solutions (10 μL final reaction volume) contained the following buffer conditions: 20 mM Hepes (pH 7.5), 10 mM MgCl2, 1 mM EGTA, 0.01% Brij35, 0.02 mg/mL BSA, 0.1 mM Na3VO4, 2 mM DTT, 1% DMSO. The assay was primed by preparing a fresh 0.2 mg/mL solution of pEY (Sigma Cat: P7244) substrate in the reaction buffer and supplementing that solution with […] of MnCl2 as substrate cofactor (Sigma Cat: M9522). The kinase of interest was then added to the solution at the appropriate concentration (30 nM wtERBB2 from, or 20 nM ERBB2YVMA, or 4 nM wtEGFR) and gently mixed prior to delivery of compound in 100% DMSO by acoustic dispensing (Beckman Echo550). Compound, Kinase, and substrate were allowed to incubate for 20 min at room temperature prior to the initiation of the reaction by addition of 33P-ATP (PerkinElmer Cat: NEG602, final conc 10 μM). […] IC50 determinations were made from a plot of kinase activity as a function of inhibitor concentration fit to the 4-parameter IC50 equation with the enzyme concentration held constant using GraphPad Prism (San Diego).

BaF3_HER2WT cells = BaF3_HER2WT cells (Homo sapiens, UniProt P04626); assay: Cell growth inhibition assay (CellTiterGlo, 3 days), BaF3_HER2WT; assay type: cell-based; conditions: read-out: HER2 WT IC50
Chain of BaF3_HER2WT cells (P04626 whole entry, change not shown): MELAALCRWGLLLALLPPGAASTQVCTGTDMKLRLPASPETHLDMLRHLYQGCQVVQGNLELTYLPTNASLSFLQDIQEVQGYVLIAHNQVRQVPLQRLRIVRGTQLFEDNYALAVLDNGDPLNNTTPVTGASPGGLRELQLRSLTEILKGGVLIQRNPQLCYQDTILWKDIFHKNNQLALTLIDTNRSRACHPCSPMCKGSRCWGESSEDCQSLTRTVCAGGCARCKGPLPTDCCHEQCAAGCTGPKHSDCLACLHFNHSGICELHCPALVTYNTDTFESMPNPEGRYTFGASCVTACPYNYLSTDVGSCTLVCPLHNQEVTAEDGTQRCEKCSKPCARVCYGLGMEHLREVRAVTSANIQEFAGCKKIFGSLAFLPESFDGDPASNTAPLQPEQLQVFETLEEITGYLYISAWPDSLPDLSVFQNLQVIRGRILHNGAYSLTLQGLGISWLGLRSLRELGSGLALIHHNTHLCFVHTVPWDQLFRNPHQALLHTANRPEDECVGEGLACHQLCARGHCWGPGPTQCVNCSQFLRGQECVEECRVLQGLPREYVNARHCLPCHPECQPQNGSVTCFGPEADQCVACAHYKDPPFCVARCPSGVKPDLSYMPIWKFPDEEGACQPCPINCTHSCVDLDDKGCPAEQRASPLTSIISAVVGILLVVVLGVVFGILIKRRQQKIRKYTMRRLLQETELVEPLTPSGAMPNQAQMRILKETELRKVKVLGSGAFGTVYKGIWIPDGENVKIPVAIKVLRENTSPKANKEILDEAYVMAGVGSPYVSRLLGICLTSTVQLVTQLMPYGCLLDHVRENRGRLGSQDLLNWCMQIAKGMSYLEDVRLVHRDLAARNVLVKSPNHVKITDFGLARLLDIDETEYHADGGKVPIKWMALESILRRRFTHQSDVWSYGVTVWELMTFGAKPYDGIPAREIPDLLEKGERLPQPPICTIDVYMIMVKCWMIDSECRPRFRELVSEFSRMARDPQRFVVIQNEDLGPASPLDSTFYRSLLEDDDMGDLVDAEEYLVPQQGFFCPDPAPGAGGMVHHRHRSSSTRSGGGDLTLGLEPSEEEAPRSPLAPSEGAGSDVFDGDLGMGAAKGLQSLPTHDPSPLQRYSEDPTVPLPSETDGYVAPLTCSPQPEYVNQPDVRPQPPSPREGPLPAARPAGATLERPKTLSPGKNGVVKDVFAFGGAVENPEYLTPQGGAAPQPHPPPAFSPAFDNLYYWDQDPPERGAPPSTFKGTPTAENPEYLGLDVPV

BaF3-HER2YVMA cells = BaF3-HER2YVMA cells (Homo sapiens, UniProt P04626, DUP772-775, cells depend on it); assay: Cell growth inhibition assay (CellTiterGlo, 3 days), BaF3-HER2YVMA; assay type: cell-based; conditions: BaF3_HER2YVMA cells, read-out: HER2-YVMA IC50
Chain of BaF3-HER2YVMA cells (P04626 with tags, fused parts or gaps DUP772-775): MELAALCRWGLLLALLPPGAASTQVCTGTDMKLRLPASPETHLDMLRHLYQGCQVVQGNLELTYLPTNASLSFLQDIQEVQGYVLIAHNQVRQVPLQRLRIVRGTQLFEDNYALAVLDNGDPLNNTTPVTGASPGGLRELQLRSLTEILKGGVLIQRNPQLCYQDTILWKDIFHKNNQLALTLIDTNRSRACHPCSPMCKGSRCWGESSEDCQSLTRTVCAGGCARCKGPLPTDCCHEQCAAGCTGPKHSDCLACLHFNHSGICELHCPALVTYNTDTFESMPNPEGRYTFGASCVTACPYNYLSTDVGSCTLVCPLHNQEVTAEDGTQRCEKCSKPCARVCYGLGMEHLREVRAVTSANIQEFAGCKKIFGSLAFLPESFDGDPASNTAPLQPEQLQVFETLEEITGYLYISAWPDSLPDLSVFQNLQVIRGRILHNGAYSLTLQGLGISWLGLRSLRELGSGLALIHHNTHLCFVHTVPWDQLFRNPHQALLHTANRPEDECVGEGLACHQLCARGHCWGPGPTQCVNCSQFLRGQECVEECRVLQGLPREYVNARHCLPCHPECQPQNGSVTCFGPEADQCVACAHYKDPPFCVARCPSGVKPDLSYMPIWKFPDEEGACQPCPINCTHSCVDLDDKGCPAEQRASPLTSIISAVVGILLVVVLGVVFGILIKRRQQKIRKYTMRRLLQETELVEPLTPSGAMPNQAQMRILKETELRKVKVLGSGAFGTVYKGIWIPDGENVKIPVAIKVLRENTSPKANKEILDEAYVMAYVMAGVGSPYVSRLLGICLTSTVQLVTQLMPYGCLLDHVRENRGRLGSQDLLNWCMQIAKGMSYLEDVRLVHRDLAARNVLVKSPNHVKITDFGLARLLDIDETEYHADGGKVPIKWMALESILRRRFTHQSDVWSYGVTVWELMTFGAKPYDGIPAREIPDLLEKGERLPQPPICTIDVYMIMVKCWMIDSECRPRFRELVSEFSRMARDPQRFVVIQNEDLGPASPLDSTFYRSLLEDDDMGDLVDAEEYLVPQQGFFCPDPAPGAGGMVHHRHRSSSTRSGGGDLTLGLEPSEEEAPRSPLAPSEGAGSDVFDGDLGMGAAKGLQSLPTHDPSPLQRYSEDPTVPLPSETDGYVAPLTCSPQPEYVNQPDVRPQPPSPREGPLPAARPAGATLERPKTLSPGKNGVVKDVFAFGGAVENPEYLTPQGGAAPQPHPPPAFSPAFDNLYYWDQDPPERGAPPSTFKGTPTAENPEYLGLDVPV

BaF3_EGFRWT cells = BaF3_EGFRWT cells (Homo sapiens, UniProt P00533); assay: Cell growth inhibition assay (CellTiterGlo, 3 days), BaF3_EGFRWT; assay type: cell-based; conditions: read-out: EGFR WT IC50
Chain of BaF3_EGFRWT cells (P00533 whole entry, change not shown): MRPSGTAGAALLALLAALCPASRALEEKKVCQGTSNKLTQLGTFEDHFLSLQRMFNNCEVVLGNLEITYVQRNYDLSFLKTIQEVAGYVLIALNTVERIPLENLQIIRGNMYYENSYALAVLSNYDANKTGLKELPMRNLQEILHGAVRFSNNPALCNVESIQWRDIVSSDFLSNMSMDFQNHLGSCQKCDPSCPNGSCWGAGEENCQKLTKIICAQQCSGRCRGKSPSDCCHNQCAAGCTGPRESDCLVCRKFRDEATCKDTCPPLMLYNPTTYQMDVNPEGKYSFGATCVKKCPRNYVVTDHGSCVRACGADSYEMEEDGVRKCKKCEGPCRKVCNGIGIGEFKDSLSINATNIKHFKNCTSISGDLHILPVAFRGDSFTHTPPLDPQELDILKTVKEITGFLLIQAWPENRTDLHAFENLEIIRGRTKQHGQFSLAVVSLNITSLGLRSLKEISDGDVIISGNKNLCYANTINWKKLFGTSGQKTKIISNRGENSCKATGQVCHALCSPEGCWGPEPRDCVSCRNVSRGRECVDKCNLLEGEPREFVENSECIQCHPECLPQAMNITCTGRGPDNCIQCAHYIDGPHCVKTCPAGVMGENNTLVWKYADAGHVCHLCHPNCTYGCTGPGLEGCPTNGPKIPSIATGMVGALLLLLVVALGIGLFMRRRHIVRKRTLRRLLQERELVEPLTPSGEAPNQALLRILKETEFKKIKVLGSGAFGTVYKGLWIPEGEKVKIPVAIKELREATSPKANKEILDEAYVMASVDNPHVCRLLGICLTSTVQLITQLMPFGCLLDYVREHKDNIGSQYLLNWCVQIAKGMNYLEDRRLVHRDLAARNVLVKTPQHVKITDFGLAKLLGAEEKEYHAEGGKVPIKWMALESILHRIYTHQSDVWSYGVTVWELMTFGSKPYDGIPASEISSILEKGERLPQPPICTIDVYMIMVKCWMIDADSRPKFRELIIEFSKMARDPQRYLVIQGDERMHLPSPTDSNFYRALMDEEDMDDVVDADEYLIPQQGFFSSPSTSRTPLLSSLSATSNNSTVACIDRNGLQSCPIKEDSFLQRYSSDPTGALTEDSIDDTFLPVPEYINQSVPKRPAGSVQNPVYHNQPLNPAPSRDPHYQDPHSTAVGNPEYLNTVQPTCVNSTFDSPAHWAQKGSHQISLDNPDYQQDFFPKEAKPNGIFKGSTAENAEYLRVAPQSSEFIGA

T1 sequence (P04626 with tags, fused parts or gaps INS775YVMA limits assumed): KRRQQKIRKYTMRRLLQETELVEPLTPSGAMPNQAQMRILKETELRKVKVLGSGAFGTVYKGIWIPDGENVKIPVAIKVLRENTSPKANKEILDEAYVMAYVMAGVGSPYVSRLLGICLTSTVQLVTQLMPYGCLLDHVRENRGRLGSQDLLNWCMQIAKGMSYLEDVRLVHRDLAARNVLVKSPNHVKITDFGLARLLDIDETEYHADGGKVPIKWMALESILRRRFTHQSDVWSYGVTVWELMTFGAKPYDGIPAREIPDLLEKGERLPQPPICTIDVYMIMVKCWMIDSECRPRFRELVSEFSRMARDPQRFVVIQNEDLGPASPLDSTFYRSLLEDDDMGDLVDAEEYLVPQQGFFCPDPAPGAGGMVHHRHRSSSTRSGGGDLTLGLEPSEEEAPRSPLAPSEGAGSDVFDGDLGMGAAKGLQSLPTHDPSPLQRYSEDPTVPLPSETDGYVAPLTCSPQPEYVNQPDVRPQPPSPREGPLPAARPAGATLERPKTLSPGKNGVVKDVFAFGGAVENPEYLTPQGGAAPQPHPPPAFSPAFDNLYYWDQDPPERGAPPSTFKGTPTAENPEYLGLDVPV

Row | Compound | IC50 [1] | GI50 (BaF3_HER2WT cells) | GI50 (BaF3-HER2YVMA cells) | GI50 (BaF3_EGFRWT cells)
1 | C=C(CN(C)C)C(=O)N1C2C=C(c3ccn4ncnc(Nc5ccc(Oc6ccn7ncnc7c6)c(C)c5)c34)CC1CC2 (stereo not shown) [Example 30, 1-(3-(4-((4-([1,2,4]triazolo[1,5-a]pyridin-7-yloxy)-3-methylphenyl)amino)pyrrolo[2,1-f][1,2,4]triazin-5-yl)-8-azabicyclo[3.2.1]oct-2-en-8-yl)-2-((dimethylamino)methyl) prop-2-en-1-one acetate] | – | < 200 nM | < 200 nM | 1500 to 5000 nM
2 | Cc1cc(Nc2ncnn3ccc([C@H]4CCCN(C(=O)/C=C/CN(C)C)CC4)c23)ccc1Oc1ccn2ncnc2c1 (single isomer, unassigned) [Example 110] | < 200 nM | – | – | –
3 | Cc1cc(Nc2ncnn3ccc(C4CCN(C(=O)[C@@H](F)Cl)CC4)c23)ccc1Oc1ccn2ncnc2c1 (single isomer, unassigned) [second eluting isomer of Examples 173 and 174] | – | < 200 nM | < 200 nM | 1500 to 5000 nM

More lines, now with the values ahead:

Row | IC50 [1] | GI50 (BaF3_HER2WT cells) | GI50 (BaF3-HER2YVMA cells) | GI50 (BaF3_EGFRWT cells) | Compound
4 | < 200 nM | – | – | – | Cc1cc(Nc2ncnn3ccc([C@H]4CCCN(C(=O)/C=C/CN(C)C)C4)c23)ccc1Oc1ccn2ncnc2c1 (single isomer, unassigned) [Example 108]
5 | – | < 200 nM | – | – | Cc1cc(Nc2ncnn3ccc(C4CC5CCC4CN5C(=O)/C=C/CN(C)C)c23)ccc1Oc1ccn2ncnc2c1 (single isomer, unassigned; first eluting) [first eluting isomer of Examples 137 and 138]
6 | < 200 nM | – | – | – | Cc1cc(Nc2ncnn3ccc([C@H]4CCN(C(=O)/C=C/CN(C)C)C4)c23)ccc1Oc1ccn2ncnc2c1 (single isomer, unassigned) [Example 100]
